# From patent publication EP2216326B1, “Biologically acceptable choline compounds and their use as tensides” (Universität Regensburg, priority 2009, dated 2010)
# Like-named read-outs stand apart in the source and are kept apart here.
# Key:
# Ratten-Gliom-Zellen = settings: rat glioma cells, cited from earlier work
# [1] = cited from earlier work; for TKr (Krafft-Temperatur): literature values of comparison substances, references (1)-(3); for Löslichkeitstemperatur in Wasser: water, literature or background statement
# HeLa-Zellen = assay: MTT assay (Mosmann) cytotoxicity on HeLa cells; assay type: cell-based, human; settings: 72 h at 37°C, at least 5 independent measurements, high values mean low toxicity
# Description: (§1) Die Zytotoxizität und Hautverträglichkeit von ChDS im Vergleich zu anderen gängigen anionischen Tensiden wurden mittels in-vitro Tests an HeLa-Zellen (humane Gebärmutterhalskrebszellen) und SK-MHL 28 Zellen (humane Melanom-Zellen) getestet. Dieses etablierte in vitro Verfahren ist in N. Vlachy, D. Touraud, J. Heilmann, W. Kunz, Colloids and Surfaces B: Biointerfaces, 2009, 70, 278 - 280 beschrieben und bietet eine gute Alternative zu den in vivo Draize-Augenirritationstests.
# (§2) Die Zellen wurden von der American Type Culture Collection (ATCC) zur Verfügung gestellt. Die Kultivierung der HeLa-Zellen erfolgte in Earle's minimum essential medium (MEM) mit 0.85 g/l Natriumhydrogencarbonat, zusätzlich versetzt mit fötalem Kälberserum (10%), L-Glutamin (2mM), nichtessentiellen Aminosäuren (1%), Amphotericin B ([…]) und Penicillin G/Streptomycin Sulfat (100u/ml). Die SK - MEL 28 - Zellen wurden in einer 1:1 Mischung aus Dulbecco's MEM mit 4.5 g/l Natriumhydrogencarbonat sowie LGlutamin und Pyrovat und HAM'S F-12 Medium mit 1.176 g/l Natriumhydrogencarbonat und stabilem Glutamin, versetzt mit 10% fötalem Kälberserum, kultiviert.
# (§3) Die Inhibitionskonzentration an Testsubstanz, welche zu einer Reduktion an lebenden Zellen um 50% im Vergleich zu einer unbehandelten Kontrolle führt (IC 50), wurde via MTT-Assay nach Mosmann festgestellt.
# (§4) Hierzu wurden in der ersten Spalte einer 96-Well-Platte je 15 µl an wässriger Testsubstanzlösung mit 135 µl Medium durchmischt. Je 75 µl dieser Mischung wurden abgenommen und in der zweiten Spalte mit 75 µl Medium verdünnt. Diese Prozedur wurde bis zur vollständigen Füllung der Platte von Spalte zu Spalte wiederholt. Anschließend wurden in jedem Well 11250 Zellen in 75 µl Medium angesät. Die so vorbereiteten Platten wurden 72 Stunden bei 37°C im Brutschrank aufbewahrt.
# (§5) Danach wurden 15 µl MTT - Lösung zu jedem Well gegeben und für weitere 4 Stunden inkubiert. Im Anschluss wurde die überstehende Lösung abgetrennt und der reduzierte MTT-Bodensatz jeweils mit 150 µl 10%iger Natrumdodecylsulfat-Lösung versetzt. Nachdem die Platten über Nacht unter Lichtausschluss stehen gelassen wurden, wurde die Absorption der Lösungen bei 560 nm mittels einem TECAN Spectra Fluor Plus microplate reader bestimmt. Nach Mittelung an zwei Einzelmessungen konnte aus den sich ergebenden Dosis-Wirkungskurven der entsprechende IC 50 Wert errechnet werden. Angegebene Werte der Inhibitionskonzentration errechnen sich aus mindestens 5 unabhängigen Messungen.
# SK-MEL 28-Zellen = assay: MTT assay (Mosmann) cytotoxicity on SK-MEL 28 cells; assay type: cell-based, human; settings: 72 h at 37°C, at least 5 independent measurements, high values mean low toxicity
# Description: as §1, §2, §3, §4, §5
# [2] = Surface tension of aqueous surfactant solutions, ring method (Krüss Tensiometer K100); assay type: physicochemical; settings: 25°C, aqueous solution, value reached starting from ca. 70 mN/m for water (Figur 3)
# Experimental: Die Herabsetzung der Grenzflächenspannung von Wasser durch Zugabe an Tensid ist ein wichtiges Maß für die Effizienz eines Tensids. Die Oberflächenspannung von wässrigen ChDS- und SDS- Lösungen wurde anhand der Ringmethode mit einem Krüss Tensiometer K100 vermessen. Figur 3 zeigt die gemessene Grenzflächenspannung bei einer Temperatur von 25°C in Abhängigkeit von der Konzentration.
# [3] = Solubility in organic solvents; assay type: physicochemical; settings: Chloroform, Aceton, Acetonitril or Dimethylsulfoxid
# [4] = Krafft temperature (solubility temperature of a 1 wt% aqueous solution) by turbidity measurement, with and without added salt; assay type: physicochemical
# Description: Als Maß für die Löslichkeit und Salzempfindlichkeit wurden die Krafft-Punkte in Abwesenheit von Salzen sowie bei unterschiedlichen Salzkonzentrationen herangezogen.
# Allgemein kann die Krafft-Temperatur eines Tensids als die Löslichkeitstemperatur einer 1 Gew. %igen Lösung definiert werden, da die CMC generell weit unterhalb dieser Konzentration liegt (R. G. Laughlin, The Aqueous Phase Behavior of Surfactants, Academic Press, San Diego, 1994, p. 108). Dementsprechend wurde zur Bestimmung der Krafft-Temperatur von ChDS eine 1 gew. - %ige Lösung eingewogen. Zur Untersuchung des Einflusses von Salzen auf den Krafft-Punkt wurden 1 gew% - igen Lösungen von ChDS verschiedene Mengen an Natriumchlorid (Merck, p.a.) bzw. Cholinchlorid (Sigma-Aldrich, min. 98%) zugesetzt und die zugehörige Löslichkeitstemperatur gemessen.
# Präzise Löslichkeitstemperaturen wurden aus Trübungsmessungen gemäß des in S. Schrödle, R. Buchner, W. Kunz, Fluid Phase Equilib., 2004, 216, 175-182 beschriebenen Verfahrens erhalten. Hierzu wurden alle untersuchten Proben bis zum Auftreten eines Niederschlags abgekühlt und anschließend mit einer Rate von 5°C pro Stunde wieder aufgeheizt.
# Die Salzempfindlichkeit wurde durch Messung der Krafft-Temperatur bei unterschiedlichen Salzkonzentrationen untersucht.
structure (smiles),measurement,setting,value
"C[N+](C)(C)CCO [Cholin, (2-Hydroxyethyl)trimethylammonium]","Toxizität geringer im Vergleich zu Tetramethylammonium (TMA), Faktor",Ratten-Gliom-Zellen; factor of lower toxicity versus TMA,"5,5"
same,"Toxizität geringer im Vergleich zu Tetrabutylammonium, -fach",Ratten-Gliom-Zellen; fold lower toxicity versus tetrabutylammonium,> 500
"CCCCCCCCCCCC(=O)O [KC12, Kaliumlaurat]",TKr (Krafft-Temperatur),[1],10°C^(3)
same,IC50,"HeLa-Zellen; Homo sapiens, HeLa, 72 h",234 ± 5 µM
same,IC50,"SK-MEL 28-Zellen; Homo sapiens, SK-MEL-28, 72 h",400 ± 10 µM
"CCCCCCCCCCCC(=O)O [ChCl2, Cholinlaurat]",TKr (Krafft-Temperatur),[1],<0°C^(3)
same,IC50,HeLa-Zellen,305 ± 6 µM
same,IC50,SK-MEL 28-Zellen,360 ± 10 µM
"CCCCCCCCCCCC(=O)O [NaCl2, Natriumlaurat]",TKr (Krafft-Temperatur),[1],25°C^(2)
same,IC50,HeLa-Zellen,230 ± 10 µM
same,IC50,SK-MEL 28-Zellen,420 ± 10 µM
CCCCCCCCCCCCOS(=O)(=O)O [Tetramethylammoniumdodecylsulfat],Löslichkeitstemperatur in Wasser,[1],< 0 °C
"CCCCCCCCCCCCOS(=O)(=O)O [KDS, Kaliumdodecylsulfat]",TKr (Krafft-Temperatur),[1],40°C^(1)
"CCCCCCCCCCCCOS(=O)(=O)O [ChDS, Cholindodecylsulfat]",Grenzflächenspannung von Wasser,[2],ca. 37 mN/m
same,Löslichkeit in organischen Lösungsmitteln,[3],gut löslich
same,IC50,"HeLa-Zellen; Homo sapiens, HeLa, 72 h",404 ± 4 µM
same,IC50,"SK-MEL 28-Zellen; Homo sapiens, SK-MEL-28, 72 h",430 ± 20 µM
same,TKr (Krafft-Temperatur),"[4]; 1 wt% aqueous solution, no salt, turbidity measurement",0 °C
same,Anstieg der Krafft-Temperatur,"[4]; NaCl:surfactant ratio of 1:1, 1 wt% solution (Figur 1, Figur 2)",~7 °C
same,in Wasser löslich bis (Temperatur),"[4]; water, found by the applicant",< 0 °C
"CCCCCCCCCCCCOS(=O)(=O)O [SDS, Natriumdodecylsulfat]",Grenzflächenspannung von Wasser,[2],ca. 36 mN/m
same,TKr (Krafft-Temperatur),[1],16°C^(1)
same,Löslichkeitstemperatur in Wasser,[1],12-25 °C
same,Löslichkeit in organischen Lösungsmitteln,[3],nur geringe Löslichkeit
same,IC50,HeLa-Zellen,270 ± 10 µM
same,IC50,SK-MEL 28-Zellen,320 ± 30 µM
